Test results from PubChem BioAssay (NCI).
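Five compound concentrations were applied to cells in 96-well plates for 48 hours; endpoints were derived by simple linear interpolation of the resulting dose-response curve. Definition used: TGI = concentration required for complete inhibition of growth.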

Experiments:
Assay in all cases: NCI tumour cell line growth inhibition, 48 h
CAKI-1 renal = test system: CAKI-1 renal
CCRF-CEM leukemia = test system: CCRF-CEM leukemia
COLO 205 colon = test system: COLO 205 colon
DU-145 prostate = test system: DU-145 prostate
IGROV1 ovarian = test system: IGROV1 ovarian
MDA-MB-231 breast = test system: MDA-MB-231 breast
NCI-H23 lung = test system: NCI-H23 lung
NCI-H522 lung = test system: NCI-H522 lung
OVCAR-5 ovarian = test system: OVCAR-5 ovarian
SK-MEL-2 melanoma = test system: SK-MEL-2 melanoma
UACC-257 melanoma = test system: UACC-257 melanoma
UACC-62 melanoma = test system: UACC-62 melanoma

Structure (SMILES)	TGI (CAKI-1 renal) [µM]	TGI (CCRF-CEM leukemia) [µM]	TGI (COLO 205 colon) [µM]	TGI (DU-145 prostate) [µM]	TGI (IGROV1 ovarian) [µM]	TGI (MDA-MB-231 breast) [µM]	TGI (NCI-H23 lung) [µM]	TGI (NCI-H522 lung) [µM]	TGI (OVCAR-5 ovarian) [µM]	TGI (SK-MEL-2 melanoma) [µM]	TGI (UACC-257 melanoma) [µM]	TGI (UACC-62 melanoma) [µM]
O=c1oc2ccccc2c2nc3ccccc3cc12	> 100	> 100	> 100	> 100	> 100	> 100	> 100	> 100	> 100	> 100	> 100	> 100
CC1OC(n2cc(F)c(=O)[nH]c2=O)C(O[Si](C)(C)C(C)(C)C)C1O[Si](C)(C)C(C)(C)C (stereo unspecified)	28.9	> 100	27.4	26.8	27.3	31.6	23	16.8	31.1	35.5	33.2	28.6
CC(C)(C)c1ccc2c(c1)OCc1n[nH]c(n1)COc1cc(C(C)(C)C)ccc1OCCOCCO2	14.6	26.8	12.6	20.6	23.2	25.5	12.5	9.07	22.6	5.27	8	10.4
CC[P+](C#Cc1ccccc1)(c1ccccc1)c1ccccc1	32.8	1.69	2.59	10.4	11.9	9.41	7.51	3.32	16.3	4.3	4.11	3.45
O=[N+]([O-])c1ccc2nc3c(nc2c1)-c1c2ccccc2cc2cccc-3c12	> 40.7	> 100	> 100	> 100	> 28.4	64.2	24.5	7.85	> 100	90	> 94.6	39.2
COC(=O)C(CCSC)NC(=O)CSc1nnc(COc2ccc(Cl)cc2)n1-c1ccccc1 (stereo unspecified)	35.9	> 66.1	34.9	33	31.1	31.3	34.9	18.1	38.7	30.6	31.2	32.7
CC(O)(C(=O)N(O)c1ccc(Cl)cc1)c1ccc(Cl)cc1 (stereo unspecified)	83.6	34.4	33	> 100	> 100	56.7	59.7	46.1	> 100	50.1	65.1	> 100
O=C(O)c1cc2ccccc2c(S(=O)(=O)O)c1O	> 100	> 100	> 100	> 100	> 100	> 100	> 100	> 100	> 100	> 100	> 100	> 100
CCN(C(=O)N[C@H](C(=O)N[C@@H](C)C(=O)OC)C(C)C)c1ccccc1	> 100	> 100	43.4	> 100	> 100	> 100	> 100	49.5	> 100	78.3	41.8	55.7
CCOC(=O)Cc1nn2c(=O)cc(C)nc2s1	> 100	> 100	> 100	> 100	> 100	> 100	> 100	> 100	> 100	> 100	> 100	> 100
COc1cc(/C=C/C(=O)O)ccc1OS(=O)(=O)O	> 100	> 100	> 100	> 100	> 100	> 100	> 100	> 100	> 100	> 100	> 100	> 100
O=C(NCCCNCCCCNCCCNC(=O)C(F)(F)F)C(F)(F)F	40.4	> 100	> 100	> 100	> 100	> 100	> 100	> 100	> 100	> 100	> 100	> 100
COn1cc(CO)c2ccccc21	> 54.8	> 100	> 100	> 100	> 100	> 100	> 100	72.9	42.5	> 100	> 70.8	> 100
O=S1(=O)c2ccccc2NC(=S)N1c1ccccc1	> 100	> 100	> 100	> 100	> 100	> 100	> 100	> 73.3	> 100	> 100	> 89.2	> 100
Cc1ccc(C(=O)c2[nH]c(Nc3cc(C)ccn3)c(C(=S)Nc3ccccc3)c2N)cc1	> 100	> 100	> 100	> 100	> 100	> 100	> 100	> 100	> 100	> 100	> 100	> 100
Cc1ccc2c(c1)C(=O)/C(=C\c1ccc(Cl)cc1)CCS2(=O)=O	7.82	> 20.8	15.6	8.15	7.56	9.41	10.2	3.28	> 42.5	61	7.23	10.2
OCC1OC(O[C@H]2CN3[C@H](O)[C@@H](O)[C@H](O)[C@H]3C2O)C(O)C(O)C1O (stereo partly specified)	> 100	> 100	> 100	> 100	> 100	> 100	> 100	> 100	> 100	> 100	> 100	> 100
CCOP(=O)(OCC)c1cc(-c2ccccc2)ccc1N	> 100	> 100	> 100	> 100	> 100	> 100	> 100	> 100	> 100	> 100	> 100	> 100
